According to PubChem BioAssay (NCI):
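Grown in 96-well plates, cells were treated for 48 hours with each compound at five concentrations. Insufficient inhibition: endpoint recorded as highest concentration tested. Abbreviation: GI50, concentration required for 50% inhibition of growth. TGI denotes the concentration required for complete inhibition of growth.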

Assays:
Assay in all cases: NCI tumour cell line growth inhibition, 48 h
OVCAR-3 ovarian = tested on: OVCAR-3 ovarian
CAKI-1 renal = tested on: CAKI-1 renal
NCI-H226 lung = tested on: NCI-H226 lung
NCI/ADR-RES ovarian = tested on: NCI/ADR-RES ovarian
RPMI-8226 leukemia = tested on: RPMI-8226 leukemia
EKVX NSCLC = tested on: EKVX NSCLC
PC-3 prostate = tested on: PC-3 prostate
MALME-3M melanoma = tested on: MALME-3M melanoma
HCT-116 colon = tested on: HCT-116 colon
HOP-92 NSCLC = tested on: HOP-92 NSCLC

Row | SMILES | GI50 (OVCAR-3 ovarian) [µM] | TGI (OVCAR-3 ovarian) [µM] | GI50 (CAKI-1 renal) [µM] | TGI (CAKI-1 renal) [µM] | GI50 (NCI-H226 lung) [µM] | TGI (NCI-H226 lung) [µM] | GI50 (NCI/ADR-RES ovarian) [µM] | TGI (NCI/ADR-RES ovarian) [µM] | GI50 (RPMI-8226 leukemia) [µM] | TGI (RPMI-8226 leukemia) [µM] | GI50 (EKVX NSCLC) [µM] | TGI (EKVX NSCLC) [µM] | GI50 (PC-3 prostate) [µM] | TGI (PC-3 prostate) [µM] | GI50 (MALME-3M melanoma) [µM] | TGI (MALME-3M melanoma) [µM] | GI50 (HCT-116 colon) [µM] | TGI (HCT-116 colon) [µM] | GI50 (HOP-92 NSCLC) [µM] | TGI (HOP-92 NSCLC) [µM]
1 | COc1cc2c(cc1NC(=O)C(Cl)Cl)-c1ccc(NC(=O)C(Cl)Cl)cc1C2 | 0.569 | 1.25 | 1.01 | 4.04 | 6.04 | 17.1 | 0.789 | 4.42 | 0.374 | 1.21 | 0.347 | 1.32 | 0.606 | 1.76 | 14 | 31.6 | 0.136 | 0.271 | 1.15 | 3.54
2 | CCOC(=O)C(CCCNC(=O)OC(C)(C)C)N(Cc1ccc(OC)cc1OC)C(=O)CC(=O)CP(=O)(OCC)OCC (stereo unspecified) |  | > 100 |  | > 100 |  | > 100 |  |  |  | > 100 |  | > 100 |  |  |  | > 100 |  | > 100 |  | > 100
3 | Cn1c(C(=O)c2cccc3ccccc23)nc2ccccc21 | > 100 | > 100 | 61 | > 100 | > 100 | > 100 | > 100 | > 100 | > 100 | > 100 |  |  | > 100 | > 100 | > 100 | > 100 | > 100 | > 100 | 35.9 | > 100
4 | CN1C(=NCCO)NS(=O)(=O)c2ccccc21 |  | > 100 |  | > 100 |  | > 100 |  | > 100 |  |  |  | > 100 |  | > 100 |  |  |  | > 100 |  | > 100
5 | O=S(=O)(NCCCNc1nccc(-c2c(-c3ccc(F)cc3)nc3sccn23)n1)c1ccc(F)cc1 |  |  | 7.8 | > 100 | 4.76 | 77.5 | 6.6 | > 100 | 5.29 | 86 |  |  | 9.54 | > 100 | 9.06 | 94.4 | 5.55 | > 100 |  | 
6 | C[P+]1(c2ccccc2)CCCCC1 |  | > 100 |  | > 100 |  |  |  |  |  | > 100 |  | > 100 |  |  |  | > 100 |  |  |  | 
7 | CCc1ccccc1NC(=O)CC1NC(=O)CS1 (stereo unspecified) |  | > 100 |  | > 100 |  | > 100 |  |  |  | > 100 |  | > 100 |  |  |  | > 100 |  | > 100 |  | > 100
8 | Cc1ccc(NC(=O)/C(C#N)=C/c2ccccc2)c(C)c1 |  | > 100 |  | > 100 |  | > 100 |  |  |  | > 100 |  | > 100 |  |  |  | > 100 |  | > 100 |  | > 100
9 | N#CNC1=NC(N)C(c2nc3ccccc3[nH]2)=C(CCCC(=O)Nc2cccc([N+](=O)[O-])c2)N1 (stereo unspecified) |  | > 100 |  | > 100 |  | > 100 |  |  |  | > 100 |  | > 100 |  |  |  | > 100 |  |  |  | 
10 | O=[N+]([O-])/C=C/c1ccc(Cl)cc1Cl |  | 53.6 |  | 29.8 |  | 32.2 |  |  |  | 5.66 |  |  |  |  |  | 32.6 |  | 13 |  | 31
11 | CC(=O)Nc1ccc(S(=O)(=O)NN(C)S(=O)(=O)c2ccc(C)cc2)cc1 |  | > 100 |  | > 100 |  |  |  |  |  | > 100 |  | > 100 |  |  |  | > 100 |  | > 100 |  | > 100
12 | N#CC1C(N)=NNC12Nc1ccccc1S2 (stereo unspecified) | 10.3 | 43.9 | 23.4 | > 100 |  |  | 17.7 | 54.1 | 26.3 | > 100 | 15.4 | 60.9 | 14.1 | > 100 |  |  | 11.5 | 35.9 | 34.7 | > 100
13 | O=C1C(Sc2ccc3ccccc3c2)=C(Sc2ccc3ccccc3c2)C(=O)c2ccccc21 |  |  |  |  |  | 37.4 |  | 44.9 |  |  |  | 23.8 |  | 31.8 |  |  |  | 20.2 |  | 22.3
14 | C=CC(=O)N[C@@H](/C=C/C(=O)OCC)Cc1ccc(-c2cc(Cl)cc(Cl)c2)cc1 | 7.27 | 53.1 | 21.5 | > 100 | 16.7 | 71.7 | 11.9 | 73.3 |  |  | 11.2 | > 100 |  |  | 10.9 | 34.1 | 5.29 | 34.2 |  | 
15 | Cn1nc(-c2ccccc2)c(C(=O)/C=C/c2ccc(Cl)cc2)c(N2CCOCC2)c1=O |  |  |  | 19.7 |  |  |  |  |  | 6.74 |  | 27.1 |  |  |  |  |  | 3.96 |  | 9.36
16 | CN(C)CCCn1c2c(c3cc4c(cc3c1=O)OCO4)C(=O)c1ccccc1-2 | 2.36 | 6.46 | 3.01 | 9.4 | 3.25 | 11.3 |  |  | 0.208 | 2.82 | 5.55 | 34.9 | 0.365 | 3.59 |  |  |  | 0.384 | 0.713 | 6.37
17 | CC1CCC2C(CN(CC3=C(C(F)(F)F)OC4OC5(C)CCC6C(C)CCC3C46OO5)CC3=C(C(F)(F)F)OC4OC5(C)CCC6C(C)CCC3C46OO5)=C(C(F)(F)F)OC3OC4(C)CCC1C32OO4 (stereo unspecified) |  |  | 5.87 | 18.4 | 19.4 | 57.8 | 26.8 | 73.2 |  |  | 19.5 | 49.2 | 3.99 | 20.1 | 6.73 | 23 | 11.6 | 24.5 | 6.3 | 33.4
18 | CC(N)CC(=O)O (stereo unspecified) |  | > 5000 |  |  |  | > 5000 |  |  |  | > 5000 |  | > 5000 |  |  |  | > 5000 |  | > 5000 |  | > 5000
19 | COc1ccc(-c2c3c(N)c4c(nc3nc3c2c(C)nn3-c2ccccc2)CCCC4)cc1 | 4.17 | 15.3 | 3.88 | 15.9 | 19.6 | 52.5 | 3.41 | 14.2 | 1.92 | 4.32 |  |  | 2.54 | 10.9 |  |  | 2.15 | 5.48 |  | 
20 | CC1CCC2(C)C(CC=C(C=O)C2(O)C=O)C12CO2 (stereo unspecified) |  | 2.6 |  | 11 |  | 4.99 |  |  |  | 6.83 |  | 23.3 |  |  |  | 8.74 |  | 6.65 |  | 5.29
21 | C=CC[N+]1(CC)CCN=C1CCCCCCCCCCCCCCCCC (stereo unspecified) |  |  | 1.2 | 2.63 |  |  |  |  |  |  |  |  | 0.237 | 0.702 |  |  | 0.294 | 1.15 |  | 
